Data as given in ChEMBL document CHEMBL4325871 (Eur J Med Chem, 2019).

What was measured:
[1] = target: TRAF2 and NCK-interacting protein kinase (Homo sapiens) (UniProt Q9UKE5); experiment: Inhibition of human TNIK assessed as residual activity at 1 uM using RLGRDKYKTLRQIRQ as substrate by [gamma-33P]-ATP assay relative to control
[2] = target: Phosphorylase b kinase gamma catalytic chain, liver/testis isoform (Homo sapiens) (UniProt P15735); experiment: Inhibition of human PHKgamma2 assessed as residual activity at 1 uM using MBP as substrate by [gamma-33P]-ATP assay relative to control
Sequence of Phosphorylase b kinase gamma catalytic chain, liver/testis isoform (Homo sapiens) (P15735 whole entry, canonical isoform): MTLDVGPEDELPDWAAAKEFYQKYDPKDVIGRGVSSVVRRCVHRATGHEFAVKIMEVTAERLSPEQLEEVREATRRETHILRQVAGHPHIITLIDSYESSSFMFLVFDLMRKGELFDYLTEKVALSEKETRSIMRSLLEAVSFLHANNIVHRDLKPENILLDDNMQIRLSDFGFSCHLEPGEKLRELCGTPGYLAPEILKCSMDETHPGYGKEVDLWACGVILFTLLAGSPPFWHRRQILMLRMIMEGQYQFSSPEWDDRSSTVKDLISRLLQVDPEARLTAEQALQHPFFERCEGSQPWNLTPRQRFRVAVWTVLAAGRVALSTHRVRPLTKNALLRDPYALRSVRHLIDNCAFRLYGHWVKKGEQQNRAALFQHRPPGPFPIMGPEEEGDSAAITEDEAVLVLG

Sequence of TRAF2 and NCK-interacting protein kinase (Homo sapiens) (Q9UKE5 whole entry, looked up, canonical isoform): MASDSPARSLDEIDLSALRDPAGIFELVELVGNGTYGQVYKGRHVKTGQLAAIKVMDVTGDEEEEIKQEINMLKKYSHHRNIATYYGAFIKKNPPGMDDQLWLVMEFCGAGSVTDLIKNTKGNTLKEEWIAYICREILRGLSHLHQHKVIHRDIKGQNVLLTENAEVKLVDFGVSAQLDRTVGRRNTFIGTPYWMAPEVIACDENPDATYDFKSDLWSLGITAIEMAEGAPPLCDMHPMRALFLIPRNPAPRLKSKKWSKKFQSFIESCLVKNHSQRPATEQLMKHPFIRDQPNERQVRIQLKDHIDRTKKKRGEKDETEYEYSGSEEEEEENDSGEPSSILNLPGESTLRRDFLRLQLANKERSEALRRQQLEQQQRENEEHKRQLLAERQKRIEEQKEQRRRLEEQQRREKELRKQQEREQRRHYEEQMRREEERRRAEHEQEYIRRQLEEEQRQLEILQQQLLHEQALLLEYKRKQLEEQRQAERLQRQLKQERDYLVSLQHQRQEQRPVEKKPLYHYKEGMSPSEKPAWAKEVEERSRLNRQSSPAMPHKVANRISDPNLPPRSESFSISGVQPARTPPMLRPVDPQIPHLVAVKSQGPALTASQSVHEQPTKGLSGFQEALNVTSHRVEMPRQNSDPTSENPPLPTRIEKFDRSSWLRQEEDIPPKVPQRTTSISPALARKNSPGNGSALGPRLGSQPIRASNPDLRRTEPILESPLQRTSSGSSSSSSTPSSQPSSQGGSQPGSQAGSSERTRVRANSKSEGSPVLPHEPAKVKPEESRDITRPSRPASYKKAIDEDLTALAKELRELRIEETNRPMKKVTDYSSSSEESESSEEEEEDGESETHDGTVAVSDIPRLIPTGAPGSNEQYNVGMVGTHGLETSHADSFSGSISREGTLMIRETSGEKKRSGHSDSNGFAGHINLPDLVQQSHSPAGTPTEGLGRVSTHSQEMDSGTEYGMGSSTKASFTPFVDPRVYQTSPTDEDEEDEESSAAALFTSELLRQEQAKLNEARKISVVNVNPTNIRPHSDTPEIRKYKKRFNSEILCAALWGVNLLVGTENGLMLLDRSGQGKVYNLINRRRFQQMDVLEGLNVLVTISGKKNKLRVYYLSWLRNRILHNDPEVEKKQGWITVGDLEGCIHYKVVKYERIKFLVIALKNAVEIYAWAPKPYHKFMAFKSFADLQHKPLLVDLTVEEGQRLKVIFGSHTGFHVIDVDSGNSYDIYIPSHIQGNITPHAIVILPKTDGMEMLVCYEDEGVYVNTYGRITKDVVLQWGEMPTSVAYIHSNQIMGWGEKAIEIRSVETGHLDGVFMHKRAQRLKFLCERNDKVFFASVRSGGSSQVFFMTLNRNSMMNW

| Structure (SMILES) | Activity [1] [%] | Activity [2] [%] |
| --- | --- | --- |
| C(=C\c1ccccc1)/C[N+]12CN3CN(CN(C3)C1)C2 | 89.3 to 93.7 |  |
| ClC/C=C/C[N+]12CN3CN(CN(C3)C1)C2 |  | 92.2 to 94.9 |
